Some test systems named below: NCI/ADR-RES; Malme-3M; BT-549; SNB-75; MDA-N; TK-10; RXF 393; UO-31; ACHN; NCI-H460; NCI-H522; UACC-62; SK-MEL-2; HCT-15; LOX IMVI; HCC 2998; SK-MEL-28; HT-29; IGROV-1; OVCAR-8.
Holding throughout (experiment): growth of human tumour cells (NCI), 48 h

SMILES strings stand for the structures.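 Grown in 96-well plates, cells were treated for 48 hours with each compound at five concentrations. Insufficient inhibition: endpoint recorded as highest concentration tested. GI50 = concentration required for 50% inhibition of growth.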 Calls of active or inactive are those of the source. Rule as the data show it: active = GI50 up to about 1.1 µM and inactive = higher. A value given as a limit tells only on which side of the number the result lay.

Turning to `Cc1nc(-c2ccccc2)c(-c2ccccc2)s1`, the GI50 is 24.2 µM (inactive) with NCI/ADR-RES; 21.4 µM (inactive) with Malme-3M; 23.9 µM (inactive) in the assay on BT-549; 23.4 µM (inactive) in the assay on SNB-75; 11.4 µM (inactive) in the assay on MDA-N; 19.7 µM (inactive) in the assay with TK-10. The GI50 is 19.4 µM (inactive) in the assay with RXF 393; 20.2 µM (inactive) with UO-31; 26.9 µM (inactive) with ACHN; 19.1 µM (inactive) in the assay on NCI-H460; 18.6 µM (inactive) in the assay on NCI-H522; 18 µM (inactive) in the assay on UACC-62. Moreover, the GI50 in the assay with SK-MEL-2 is 16.7 µM (inactive); in the assay with HCT-15, 17.7 µM; in the assay on LOX IMVI, 16.4 µM (inactive); in the assay with HCC 2998 it was 12.7 µM (inactive); in the assay with SK-MEL-28, 45 µM (inactive); with HT-29 it was 17.9 µM (inactive). Further, the GI50 is 18.6 µM (inactive) with IGROV-1 and 27.1 µM (inactive) in the assay with OVCAR-8.

Consider `CCN(CC(=O)O)CC(=O)O`, for which the GI50 with NCI/ADR-RES, with Malme-3M, with BT-549, with SNB-75, with MDA-N and with TK-10 was > 100 µM (inactive) each time. Also, the GI50 in the assay on RXF 393, in the assay with UO-31, with ACHN, in the assay with NCI-H460, in the assay with NCI-H522 and in the assay with UACC-62 was > 100 µM (inactive) in each case. The GI50 with SK-MEL-2 is > 100 µM (inactive); in the assay on HCT-15, over 100 µM; in the assay on LOX IMVI it was > 100 µM (inactive); with HCC 2998, > 100 µM (inactive); with SK-MEL-28 it was > 100 µM (inactive); in the assay with HT-29, > 100 µM (inactive). Further, the GI50 in the assay with IGROV-1 and in the assay on OVCAR-8 was > 100 µM (inactive) in each case.

Take `CCOC(=O)C1OC(C2(C)OC3(OC4(C=CC3O)OC(C(C)C(=O)C(C)C(O)C(C)CC(C)c3c(Cl)cc(C)c(O)c3C(=O)O)C(C)CC4C)C(C)C2OC)CC1O` (stereo not given): the GI50 is 1.24 µM (inactive) in the assay with NCI/ADR-RES; 0.294 µM (active) in the assay with Malme-3M; 2.08 µM (inactive) in the assay on BT-549; 0.163 µM (active) with SNB-75; 0.55 µM (active) in the assay on MDA-N; 2.34 µM (inactive) with TK-10. The GI50 with RXF 393 was 0.647 µM (active); with UO-31, 1.18 µM (inactive); in the assay with ACHN, 0.441 µM (active); in the assay with NCI-H460, 0.0826 µM (active); in the assay on NCI-H522, < 0.0803 µM (active); with UACC-62 it was 0.27 µM (active). Also, the GI50 was 0.493 µM (active) in the assay with SK-MEL-2; 0.453 µM in the assay on HCT-15; 0.413 µM (active) in the assay with LOX IMVI; 0.034 µM (active) with HCC 2998; 0.418 µM (active) in the assay with SK-MEL-28; 0.34 µM (active) with HT-29. Besides, the GI50 is 2.1 µM (inactive) in the assay on IGROV-1 and 0.771 µM (active) in the assay with OVCAR-8.

Turning to `CN1CCN(C(=O)c2cn(Cc3cncn3Cc3ccc4c(c3)OCO4)cc2-c2cccc3ccccc23)CC1`, the GI50 in the assay with NCI/ADR-RES is 28.2 µM (inactive); in the assay with Malme-3M, 3.33 µM (inactive); with BT-549, 9.75 µM (inactive); in the assay with SNB-75 it was 14.7 µM (inactive); in the assay with MDA-N, 0.378 µM (active); in the assay with TK-10, 29.1 µM (inactive). Moreover, the GI50 in the assay on RXF 393 was 30 µM (inactive); in the assay on UO-31, 7.66 µM (inactive); in the assay on ACHN it was 9.98 µM (inactive); with NCI-H460 it was 2.46 µM (inactive); in the assay with NCI-H522, 5.86 µM (inactive); in the assay with UACC-62, 7.96 µM (inactive). For the same compound, the GI50 with SK-MEL-2 was 0.268 µM (active); in the assay on HCT-15, 17 µM; with LOX IMVI, 4.76 µM (inactive); in the assay with HCC 2998 it was 10.6 µM (inactive); in the assay with SK-MEL-28, 4.83 µM (inactive); with HT-29 it was 3.11 µM (inactive). In addition, the GI50 in the assay on IGROV-1 was 2.85 µM (inactive); with OVCAR-8, 31.6 µM (inactive).

For `CCCCCCCCCCCCCCCCSS(C)(=O)=O`, the GI50 was 2.33 µM (inactive) in the assay with NCI/ADR-RES; 7.45 µM (inactive) in the assay on Malme-3M; 4.42 µM (inactive) in the assay on BT-549; 14.6 µM (inactive) with SNB-75; 14.8 µM (inactive) with MDA-N; 24.1 µM (inactive) in the assay with TK-10. For the same compound, the GI50 was 5.43 µM (inactive) in the assay on RXF 393; 20.8 µM (inactive) with UO-31; 13.4 µM (inactive) with ACHN; > 61.2 µM (inactive) in the assay with NCI-H460; 4.48 µM (inactive) in the assay with NCI-H522; 22.4 µM (inactive) with UACC-62. Besides, the GI50 with SK-MEL-2 was 5.81 µM (inactive); in the assay with HCT-15, 11 µM; with LOX IMVI, 3.73 µM (inactive); with HCC 2998, > 53.6 µM (inactive); in the assay on SK-MEL-28 it was 11.9 µM (inactive); in the assay on HT-29, 25.2 µM (inactive). Besides, the GI50 in the assay on IGROV-1 is 32.4 µM (inactive); in the assay on OVCAR-8, 29.4 µM (inactive).

For `CCOc1nc2c(N3CCCC3)nc(N3CCNCC3)nc2nc1NCc1ccccc1`, the GI50 in the assay with NCI/ADR-RES is 2.77 µM (inactive); in the assay with Malme-3M, 1.89 µM (inactive); with BT-549 it was 1.61 µM (inactive); in the assay on SNB-75, 0.975 µM (active); in the assay on MDA-N it was 1.11 µM (active); in the assay on TK-10, 1.9 µM (inactive). Besides, the GI50 in the assay on RXF 393 was 1.03 µM (active); in the assay with UO-31, 1.32 µM (inactive); in the assay on ACHN, 1.58 µM (inactive); in the assay on NCI-H460, 1.41 µM (inactive); in the assay with NCI-H522, 0.82 µM (active); in the assay on UACC-62 it was 1.83 µM (inactive). For the same compound, the GI50 is 1.66 µM (inactive) in the assay on SK-MEL-2; 1.63 µM with HCT-15; 1.36 µM (inactive) in the assay with LOX IMVI; 1.34 µM (inactive) with HCC 2998; 1.79 µM (inactive) in the assay on SK-MEL-28; 0.83 µM (active) with HT-29. Besides, the GI50 in the assay on IGROV-1 was 1.19 µM (inactive); in the assay with OVCAR-8 it was 1.73 µM (inactive).

For `CCc1nc(N)nc(N)c1-c1ccc(N(C)Cc2ccccc2)c([N+](=O)[O-])c1`, the GI50 in the assay with NCI/ADR-RES is 0.184 µM (active); in the assay with Malme-3M it was 2.22 µM (inactive); in the assay on BT-549, 4.9 µM (inactive); with SNB-75 it was 2.22 µM (inactive); in the assay with MDA-N, 0.0243 µM (active); with TK-10, 7.13 µM (inactive). Besides, the GI50 was 3.61 µM (inactive) in the assay with RXF 393; 0.458 µM (active) with UO-31; 0.0342 µM (active) with ACHN; < 0.01 µM (active) with NCI-H460; 1.15 µM (inactive) with NCI-H522; 0.0357 µM (active) in the assay with UACC-62. Also, the GI50 with SK-MEL-2 was 7.74 µM (inactive); in the assay on HCT-15, under 0.01 µM; with LOX IMVI, < 0.0114 µM (active); in the assay on HCC 2998, 0.345 µM (active); in the assay on SK-MEL-28, 4.79 µM (inactive); with HT-29 it was 0.0191 µM (active). In addition, the GI50 is 0.128 µM (active) with IGROV-1 and 0.0466 µM (active) in the assay with OVCAR-8.

As for `OC(c1cc(-c2ccc(Cl)cc2)nc2ccccc12)C1CCCCN1` (stereo not given), the GI50 with NCI/ADR-RES is 2.38 µM (inactive); in the assay on Malme-3M, 0.873 µM (active); in the assay on BT-549, 5.09 µM (inactive); in the assay on SNB-75, 2.43 µM (inactive); in the assay on MDA-N, 1.95 µM (inactive); with TK-10, 4.32 µM (inactive). Further, the GI50 with RXF 393 was 0.368 µM (active); in the assay on UO-31, 1.15 µM (inactive); in the assay on ACHN it was 1.95 µM (inactive); in the assay with NCI-H460 it was 2.08 µM (inactive); in the assay with NCI-H522 it was 1.27 µM (inactive); with UACC-62 it was 1.82 µM (inactive). The GI50 in the assay with SK-MEL-2 is 2.03 µM (inactive); in the assay on HCT-15, 2.46 µM; with LOX IMVI, 0.982 µM (active); with HCC 2998, 2.08 µM (inactive); in the assay with SK-MEL-28 it was 1.87 µM (inactive); in the assay with HT-29, 1.9 µM (inactive). Also, the GI50 was 1.76 µM (inactive) in the assay on IGROV-1 and 2.08 µM (inactive) with OVCAR-8.

As for `NS(=O)(=O)c1ccc(NNc2c3ccccc3nc3ccccc23)cc1`, the GI50 with NCI/ADR-RES was 14 µM (inactive); in the assay on Malme-3M, 11.2 µM (inactive); with BT-549, 10.3 µM (inactive); with SNB-75 it was 12.9 µM (inactive); in the assay with MDA-N, 12.9 µM (inactive); with TK-10, 18.8 µM (inactive). Further, the GI50 with RXF 393 is 13.2 µM (inactive); with UO-31 it was 10.9 µM (inactive); in the assay on ACHN it was 11.4 µM (inactive); in the assay on NCI-H460 it was 12.2 µM (inactive); in the assay on NCI-H522 it was 11.4 µM (inactive); in the assay with UACC-62, 12.3 µM (inactive). The GI50 with SK-MEL-2 was 13.5 µM (inactive); in the assay on HCT-15, 10 µM; in the assay on LOX IMVI, 7.21 µM (inactive); in the assay on HCC 2998 it was 12.2 µM (inactive); in the assay with SK-MEL-28 it was 12 µM (inactive); in the assay with HT-29, 7.73 µM (inactive). Besides, the figures for the GI50 in the assay with IGROV-1 and with OVCAR-8 were 11.2 µM (inactive) and 11.8 µM (inactive), respectively.

Turning to `O=C1C2=C(CC3=C(C2)CS(=O)(=O)C3)C(=O)C2=C1CC1=C(C2)CS(=O)(=O)C1`, the GI50 in the assay with NCI/ADR-RES is 16.3 µM (inactive); in the assay with Malme-3M, 5.42 µM (inactive); in the assay with BT-549, 18.5 µM (inactive); with SNB-75 it was > 20.9 µM (inactive); with MDA-N it was 10.3 µM (inactive); in the assay on TK-10, 48.9 µM (inactive). Also, the GI50 was 27.3 µM (inactive) with RXF 393; 38.1 µM (inactive) with UO-31; 36.3 µM (inactive) with ACHN; > 31.5 µM (inactive) in the assay with NCI-H460; 11.3 µM (inactive) with NCI-H522; 15.8 µM (inactive) in the assay with UACC-62. Also, the GI50 in the assay on SK-MEL-2 was 32.4 µM (inactive); in the assay on HCT-15 it was 34.1 µM; with LOX IMVI, 14.3 µM (inactive); in the assay with HCC 2998, 20.6 µM (inactive); in the assay on SK-MEL-28, > 43.1 µM (inactive); in the assay on HT-29 it was 8.59 µM (inactive). Also, the values for the GI50 with IGROV-1 and with OVCAR-8 were 15.4 µM (inactive) and 24.2 µM (inactive), respectively.

Source of the values: ChEMBL document CHEMBL1201862, “PubChem BioAssay data set” (2004).
